Columns and labels:
[1] = tested on: MBSA delayed hypersensitivity in mice; test: Delayed hypersensitivity to methylated bovine serum albumin (MBSA); assay type: in vivo, Male and female MFI mice substrain E33; details: for % increase paw volume / % reduction (cf. arachis oil control): 10 doses
Description: Male and female MFI mice substrain E33. Initial weight approximately 25 gm.
Dosing with vehicle and retinoid commenced on day 0 and finished on day 9.
Each group consisted of 4 male and 6 female mice (separately caged). Drugs were dosed orally at a dose volume of 10 ml.kg^-1 (10 doses).

[2] = tested on: carrageenan pleurisy in rats; test: Non-immune inflammation, 4 hr carrageenan pleurisy; assay type: in vivo, Female Alderley Park Strain 1 rats; details: 10 days
Description: Female Alderley Park Strain 1 rats weighing 170-205 g. at the start of the experiment were used.
Lambda-carrageenan. Prepared as a solution in saline and sterilized by autoclaving.
Compound A was administered orally to groups of 8 rats once daily for 10 days at doses of 10, 30 and 100 mg.kg^-1. Control animals received the vehicle. One hour after the last dose the animals were anesthetised with methohexitone (Brietal, 50 mg.kg^-1) and 0.2 ml of 1% lambda carrageenan was injected into the pleural cavity. Four hours later the animals were killed with an overdose of pentobarbitone (Sagatal), the pleural exudate was collected and the pleural cavity was washed out with 2 ml of phosphate-buffered saline (PBS-A, Oxoid). The exudate volume was recorded and cell counts were determined using an automatic cell counter (Coulter). Differential cell counts were performed on exudate smears stained with Giemsa stain in order to determine separately the numbers of polymorphonuclear leucocytes (PMN) and mononuclear cells (MN).
Immediately after recovery of the pleural exudates the tibiae of the animals were excised and their breaking strains were determined.
The body weights of the animals were recorded daily. Statistical analyses were performed using Student's two-tailed t test.

With `CCCCCCCCCOc1ccccc1/C=C/C(C)=C/C=C/C(C)=C/C(=O)O` [Compound A, All(E)-9-[2(nonyloxy)phenyl]-3,7-dimethyl-2,4,6,8-nonatetraenoic acid] the “% increase paw volume” value ([1]; 10 mg.kg^-1 oral) was 102 ± 12%, the “% reduction (cf. arachis oil control)” value ([1]; 10 mg.kg^-1 oral) was 6% and the “Mean body weight change” value ([1]; 10 mg.kg^-1 oral, female (F)) was -0.2 g. The “Mean body weight change” value ([1]; 10 mg.kg^-1 oral, male (M)) was 3.3 g, the “% increase paw volume” value ([1]; 30 mg.kg^-1 oral) was 50 ± 7% and the “% reduction (cf. arachis oil control)” value ([1]; 30 mg.kg^-1 oral) was 54%. The “Mean body weight change” value ([1]; 30 mg.kg^-1 oral, female (F)) was 0.5 g, the “Mean body weight change” value ([1]; 30 mg.kg^-1 oral, male (M)) was 2.8 g and the “% increase paw volume” value ([1]; 100 mg.kg^-1 oral) was 40 ± 5%. The “% reduction (cf. arachis oil control)” value ([1]; 100 mg.kg^-1 oral) was 63%, the “Mean body weight change” value ([1]; 100 mg.kg^-1 oral, female (F)) was -0.2 g and the “Mean body weight change” value ([1]; 100 mg.kg^-1 oral, male (M)) was 3.3 g. For the same compound, the “Exudate Volume” value ([2]; 10 mg per kg per day p.o.) was 0.94 mL, the “Exudate Volume % change” value ([2]; 10 mg per kg per day p.o.) was -32.8% and the “Tibial Breaking Strain (Right + Left) % change” value ([2]; 10 mg per kg per day p.o.) was -3.4%. The “Tibial Breaking Strain (Right + Left) Mean” value ([2]; 10 mg per kg per day p.o.) was 6.5 kg, the “Total Cell Count” value ([2]; 10 mg per kg per day p.o.) was 120.8 ×10^6 and the “Total Cell Count % change” value ([2]; 10 mg per kg per day p.o.) was -6.5%. For the same compound, the “Total MN” value ([2]; 10 mg per kg per day p.o.) was 8.4 ×10^6, the “Total MN % change” value ([2]; 10 mg per kg per day p.o.) was -17.4% and the “Total PMN” value ([2]; 10 mg per kg per day p.o.) was 112.4 ×10^6. The “Total PMN % change” value ([2]; 10 mg per kg per day p.o.) was -5.6%, the “Exudate Volume” value ([2]; 30 mg per kg per day p.o.) was 0.88 mL and the “Exudate Volume % change” value ([2]; 30 mg per kg per day p.o.) was -36.9%. The “Tibial Breaking Strain (Right + Left) % change” value ([2]; 30 mg per kg per day p.o.) was “+1.5%”, the “Tibial Breaking Strain (Right + Left) Mean” value ([2]; 30 mg per kg per day p.o.) was 6.8 kg and the “Total Cell Count” value ([2]; 30 mg per kg per day p.o.) was 112.1 ×10^6. For the same compound, the “Total Cell Count % change” value ([2]; 30 mg per kg per day p.o.) was -13.3%, the “Total MN” value ([2]; 30 mg per kg per day p.o.) was 7.9 ×10^6 and the “Total MN % change” value ([2]; 30 mg per kg per day p.o.) was -23.1%. For the same compound, the “Total PMN” value ([2]; 30 mg per kg per day p.o.) was 104.2 ×10^6, the “Total PMN % change” value ([2]; 30 mg per kg per day p.o.) was -12.4% and the “Exudate Volume” value ([2]; 100 mg per kg per day p.o.) was 0.80 mL. The “Exudate Volume % change” value ([2]; 100 mg per kg per day p.o.) was -42.9%, the “Tibial Breaking Strain (Right + Left) % change” value ([2]; 100 mg per kg per day p.o.) was -0.3% and the “Tibial Breaking Strain (Right + Left) Mean” value ([2]; 100 mg per kg per day p.o.) was 6.7 kg. The “Total Cell Count” value ([2]; 100 mg per kg per day p.o.) was 109.1 ×10^6, the “Total Cell Count % change” value ([2]; 100 mg per kg per day p.o.) was -15.7% and the “Total MN” value ([2]; 100 mg per kg per day p.o.) was 7.5 ×10^6. For the same compound, the “Total MN % change” value ([2]; 100 mg per kg per day p.o.) was -26.7%, the “Total PMN” value ([2]; 100 mg per kg per day p.o.) was 101.6 ×10^6 and the “Total PMN % change” value ([2]; 100 mg per kg per day p.o.) was -14.7%.

Source: patent publication US4648996A, “Phenyl substituted-2,4,6,8-nonatetraenoic acid” (Hoffmann-La Roche Inc., priority 1985, dated 1987)
